Among the data in patent US20150011508A1, “COMPOUNDS AND COMPOSITIONS AS C-KIT KINASE INHIBITORS” (priority 2011, published 2015) are IC50 values, retold here.

Each structure is given as a SMILES string.

The target in the first test is T1, c-kit (Homo sapiens, UniProt P10721).
T1 construct: human Mo7e cells which endogenously express c-kit; endogenous in cells; host or cells: human Mo7e cells (SCF-dependent promegakaryocytic leukemia line)
T1 sequence (P10721 26-976): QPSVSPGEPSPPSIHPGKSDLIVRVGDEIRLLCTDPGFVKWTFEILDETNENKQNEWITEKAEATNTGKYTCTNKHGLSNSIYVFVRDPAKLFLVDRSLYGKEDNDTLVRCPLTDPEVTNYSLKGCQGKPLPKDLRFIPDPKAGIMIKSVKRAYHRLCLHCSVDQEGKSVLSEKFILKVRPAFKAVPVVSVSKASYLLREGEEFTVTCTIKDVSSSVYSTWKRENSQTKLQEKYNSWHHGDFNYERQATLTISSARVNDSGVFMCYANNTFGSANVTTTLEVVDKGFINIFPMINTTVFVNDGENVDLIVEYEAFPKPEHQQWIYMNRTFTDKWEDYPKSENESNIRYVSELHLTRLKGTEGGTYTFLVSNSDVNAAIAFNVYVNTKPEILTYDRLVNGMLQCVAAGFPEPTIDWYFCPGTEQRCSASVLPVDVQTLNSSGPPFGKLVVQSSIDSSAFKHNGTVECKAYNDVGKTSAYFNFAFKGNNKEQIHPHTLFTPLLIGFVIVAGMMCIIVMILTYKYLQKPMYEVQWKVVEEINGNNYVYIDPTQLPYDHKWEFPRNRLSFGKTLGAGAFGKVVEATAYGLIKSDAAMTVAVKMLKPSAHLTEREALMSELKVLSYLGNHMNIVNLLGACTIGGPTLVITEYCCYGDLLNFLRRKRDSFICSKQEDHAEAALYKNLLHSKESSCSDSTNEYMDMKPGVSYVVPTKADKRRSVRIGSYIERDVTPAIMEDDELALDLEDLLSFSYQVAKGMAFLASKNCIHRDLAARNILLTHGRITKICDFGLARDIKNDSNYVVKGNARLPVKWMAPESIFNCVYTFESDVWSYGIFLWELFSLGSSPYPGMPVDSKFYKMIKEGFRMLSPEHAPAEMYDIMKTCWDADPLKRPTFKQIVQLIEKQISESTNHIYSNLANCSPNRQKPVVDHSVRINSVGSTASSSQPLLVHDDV
Kind of test: Mo7e cell proliferation assay (SCF dependent proliferation). To be noted: Table 1; human Mo7e cells stimulated with human recombinant SCF, 48 h, CellTiter Glo; 1% FBS (footnote). Type of test: cell-based. Here is the method:
Compounds of Formula (I) and Formula (II) provided herein were assayed to measure their capacity to inhibit c-kit and PDGFR kinases using the appropriate assay described below: c-Kit inhibition was evaluated using the Mo7e cell proliferation assay, and PDGFR inhibition was evaluated using the Rat A10 cell proliferation assay and the Human TGHA-VSMC cell proliferation assay.
The compounds of Table 1 and Table 2 were tested for inhibition of SCF dependent proliferation using human Mo7e cells which endogenously express c-kit in a 384 well format. […] After 48 hours of incubation at 37° C., cell viability was measured by adding 25 uL of CellTiter Glo (Promega) to the cells and the luminescence was measured by a CLIPR CCD camera (Molecular Devices).
The IC50 value is given as that concentration of the test compound in question that provoke a response halfway between the baseline and maximum responses.
On to `Cc1ccc(-c2noc(CCC(C)(C)O)n2)cc1NC(=O)c1cnc2cc(-c3cnn(C)c3)ccn12` [F63], for which the IC50 worked out at 7 nM.

For the compound `Cc1ccc(-c2noc(CCC(C)(C)O)n2)cc1NC(=O)c1cnc2cc(C3CC3)ccn12` [F64], the IC50 is 48 nM.

As to `Cc1ccc(-c2noc(N(C)CC(C)(C)O)n2)cc1NC(=O)c1cnc2cc(F)ccn12` [F65], the IC50 worked out at 100 nM.

Regarding `Cc1ccc(-c2noc(CCC(C)(O)C(F)(F)F)n2)cc1NC(=O)c1cnc2ccccn12` (stereo not drawn) [F66, N-(2-methyl-5-(5-(4,4,4-trifluoro-3-hydroxy-3-methylbutyl)-1,2,4-oxadiazol-3-yl)phenyl)imidazo[1,2-a]pyridine-3-carboxamide], the IC50 amounted to 27 nM.

On to `Cc1ccn2c(C(=O)Nc3cc(-c4noc(CCC(C)(O)C(F)(F)F)n4)ccc3C)cnc2c1` (stereo not drawn) [F67, 7-methyl-N-(2-methyl-5-(5-(4,4,4-trifluoro-3-hydroxy-3-methylbutyl)-1,2,4-oxadiazol-3-yl)phenyl)imidazo[1,2-a]pyridine-3-carboxamide], for which the IC50 was found to be 16 nM.

Take `Cc1ccn2c(C(=O)Nc3cc(-c4noc(NCCF)n4)ccc3C)cnc2c1` [F68]: the IC50 stood at 54 nM.

Consider `Cc1ccn2c(C(=O)Nc3cc(-c4noc(NCC(C)C)n4)ccc3C)cnc2c1` [F69], for which the half-inhibitory concentration (IC50) stood at 16 nM.

`Cc1ccc(-c2noc(CCC(C)(O)C(F)(F)F)n2)cc1NC(=O)c1cnc2cc(F)ccn12` (stereo not drawn) [F70]: the half-inhibitory concentration (IC50) came out at 44 nM.

As to `Cc1ccc(-c2noc(CCC(C)(O)C(F)(F)F)n2)cc1NC(=O)c1cnc2ccc(F)cn12` (stereo not drawn) [F71], the concentration for half-maximal inhibition (IC50) amounted to 54 nM.

Turning to `Cc1ccc2ncc(C(=O)Nc3cc(-c4noc(CCC(C)(O)C(F)(F)F)n4)ccc3C)n2c1` (stereo not drawn) [F72], the IC50 turned out to be 35 nM.

For `[2H]c1c([2H])c([2H])n2c(C(=O)Nc3cc(-c4noc(CCC(C)(O)C(F)(F)F)n4)ccc3C)cnc2c1[2H]` (stereo not drawn) [F73], the half-maximal inhibitory concentration (IC50) amounted to 25 nM.

On to `Cc1ccc(-c2noc(CCC(F)(F)F)n2)cc1NC(=O)c1cnc2ccccn12` [F74], for which the half-inhibitory concentration (IC50) was 36 nM.

For the compound `Cc1ccn2c(C(=O)Nc3cc(-c4noc(COCC(F)(F)F)n4)ccc3C)cnc2c1` [F77], the half-inhibitory concentration (IC50) is 10 nM.

For `[2H]C([2H])([2H])c1ccn2c(C(=O)Nc3cc(-c4noc(COCC(F)(F)F)n4)ccc3C)cnc2c1` [F78, 7-methyl-d3-N-(2-methyl-5-(5-((2,2,2-trifluoroethoxy)methyl)-1,2,4-oxadiazol-3-yl)phenyl)imidazo[1,2-a]pyridine-3-carboxamide], the IC50 was found to be 9 nM.

Regarding `Cc1ccc2ncc(C(=O)Nc3cc(-c4noc(COCC(F)(F)F)n4)ccc3C)n2c1` [F79], the half-maximal inhibitory concentration (IC50) was 13 nM.

Take `Cc1ccc(-c2noc(CCCC(F)(F)F)n2)cc1NC(=O)c1cnc2ccccn12` [F80]: the IC50 came out at 5 nM.

For `Cc1nc(-c2ccc(C)c(NC(=O)c3cnc4ccc(-c5ccccc5C)cn34)c2)no1` [F81, N-(2-methyl-5-(5-methyl-1,2,4-oxadiazol-3-yl)phenyl)-6-(o-tolyl)imidazo[1,2-a]pyridine-3-carboxamide], the IC50 stood at 96 nM.

On to `Cc1nc(-c2ccc(C)c(NC(=O)c3cnc4ccc(-c5cccnc5C)cn34)c2)no1` [F82], for which the IC50 was determined as 53 nM.

For the compound `Cc1nc(-c2ccc(C)c(NC(=O)c3cnc4ccc(-c5ccncc5C)cn34)c2)no1` [F83], the IC50 came to 48 nM.

Take `Cc1ccc2ncc(C(=O)Nc3cc(-c4noc(CC[C@](C)(O)C(F)(F)F)n4)ccc3C)n2c1` [F84]: the half-maximal inhibitory concentration (IC50) is 30 nM.

`Cc1ccc(-c2noc(CC[C@](C)(O)C(F)(F)F)n2)cc1NC(=O)c1cnc2ccc(F)cn12` [F85]: the half-maximal inhibitory concentration (IC50) amounted to 38 nM.

As for `Cc1ccc(-c2noc(CC[C@](C)(O)C(F)(F)F)n2)cc1NC(=O)c1cnc2cc(F)ccn12` [F86], the IC50 turned out to be 43 nM.

`Cc1ccc2ncc(C(=O)Nc3cc(-c4noc(CC[C@@](C)(O)C(F)(F)F)n4)ccc3C)n2c1` [F87]: the IC50 was determined as 29 nM.

Regarding `Cc1ccc(-c2noc(CC[C@@](C)(O)C(F)(F)F)n2)cc1NC(=O)c1cnc2ccc(F)cn12` [F88], the IC50 is 42 nM.

For the compound `Cc1ccc(-c2noc(CC[C@@](C)(O)C(F)(F)F)n2)cc1NC(=O)c1cnc2cc(F)ccn12` [F89], the IC50 stood at 41 nM.

Consider `COC(C)(CCc1nc(-c2ccc(C)c(NC(=O)c3cnc4cc(C)ccn34)c2)no1)C(F)(F)F` (stereo not drawn) [F90], for which the half-maximal inhibitory concentration (IC50) is 48 nM.

For `Cc1nc(C)c(-c2ccc3ncc(C(=O)Nc4cc(-c5noc(COCC(F)(F)F)n5)ccc4C)n3c2)s1` [F91, 6-(2,4-dimethylthiazol-5-yl)-N-(2-methyl-5-(5-((2,2,2-trifluoroethoxy)methyl)-1,2,4-oxadiazol-3-yl)phenyl)imidazo[1,2-a]pyridine-3-carboxamide], the IC50 amounted to 6 nM.

Regarding `Cc1nc(-c2ccc(C)c(NC(=O)c3cnc4ccc(-c5cccnc5F)cn34)c2)no1` [F92], the IC50 came out at 16 nM.

On to `CNC(=O)c1ccc(-c2ccc3ncc(C(=O)Nc4cc(-c5noc(C)n5)ccc4C)n3c2)cn1` [F93], for which the IC50 turned out to be 68 nM.

On to `Cc1ccc(-c2noc(COCC(F)F)n2)cc1NC(=O)c1cnc2ccccn12` [F94, N-(5-(5-((2,2-difluoroethoxy)methyl)-1,2,4-oxadiazol-3-yl)-2-methylphenyl)imidazo[1,2-a]pyridine-3-carboxamide], for which the half-inhibitory concentration (IC50) worked out at 39 nM.

Take `Cc1ccc(-c2noc(COC(CF)CF)n2)cc1NC(=O)c1cnc2ccccn12` [F95]: the half-maximal inhibitory concentration (IC50) was found to be 28 nM.

In the case of `Cc1ccc(-c2noc(COC(C)C(F)(F)F)n2)cc1NC(=O)c1cnc2ccccn12` (stereo not drawn) [F96], the IC50 turned out to be 11 nM.

Turning to `Cc1nc(-c2ccc(C)c(NC(=O)c3cnc4ccc(-c5scnc5C)cn34)c2)no1` [F97], the IC50 was 38 nM.

Turning to `Cc1ccn2c(C(=O)Nc3cc(-c4noc(CCC(O)C(F)(F)F)n4)ccc3C)cnc2c1` (stereo not drawn) [F98], the IC50 worked out at 18 nM.

Regarding `Cc1ccn2c(C(=O)Nc3cc(-c4noc(C[C@@H](O)C(F)(F)F)n4)ccc3C)cnc2c1` [F99], the IC50 amounted to 45 nM.

As to `Cc1nc(-c2ccc(C)c(NC(=O)c3cnc4ccc(-c5c(C)nn(C)c5C)cn34)c2)no1` [F100], the half-maximal inhibitory concentration (IC50) stood at 19 nM.

`Cc1nc(-c2ccc(C)c(NC(=O)c3cnc4ccc(-c5cccn5C)cn34)c2)no1` [F101]: the IC50 worked out at 80 nM.

Turning to `COc1ccncc1-c1ccc2ncc(C(=O)Nc3cc(-c4noc(C)n4)ccc3C)n2c1` [F102], the IC50 turned out to be 87 nM.

Take `Cc1nc(-c2ccc(C)c(NC(=O)c3cnc4ccc(-c5ccnc(N)c5)cn34)c2)no1` [F103]: the IC50 is 61 nM.

`Cc1nc(-c2ccc(C)c(NC(=O)c3cnc4ccc(-c5c(C)n[nH]c5C)cn34)c2)no1` [F104, 6-(3,5-dimethyl-1H-pyrazol-4-yl)-N-(2-methyl-5-(5-methyl-1,2,4-oxadiazol-3-yl)phenyl)imidazo[1,2-a]pyridine-3-carboxamide]: the half-maximal inhibitory concentration (IC50) came out at 9 nM.

With `Cc1nc(-c2ccc(C)c(NC(=O)c3cnc4ccc(-c5c(C)nn(S(C)(=O)=O)c5C)cn34)c2)no1` [F105, 6-(3,5-dimethyl-1-(methylsulfonyl)-1H-pyrazol-4-yl)-N-(2-methyl-5-(5-methyl-1,2,4-oxadiazol-3-yl)phenyl)imidazo[1,2-a]pyridine-3-carboxamide], the concentration for half-maximal inhibition (IC50) is 38 nM.

`Cc1nc(-c2ccc(C)c(NC(=O)c3cnc4ccc(-c5c(C)nn(CCN6CCOCC6)c5C)cn34)c2)no1` [F106, 6-(3,5-dimethyl-1-(2-morpholinoethyl)-1H-pyrazol-4-yl)-N-(2-methyl-5-(5-methyl-1,2,4-oxadiazol-3-yl)phenyl)imidazo[1,2-a]pyridine-3-carboxamide]: the 50% inhibitory concentration (IC50) is 24 nM.

Staying with this test, now noted: Table 2, values marked *: 20% FBS instead of 1% FBS.
Consider `COCc1noc(-c2ccc(C)c(NC(=O)c3cnc4ccccn34)c2)n1` [F108], for which the IC50 turned out to be 716 nM.

Staying with this test, now noted: Table 2; human Mo7e cells stimulated with human recombinant SCF, 48 h, CellTiter Glo; 1% FBS (footnote).
Consider `Cc1ccc(-c2nc(C(C)C)no2)cc1NC(=O)c1cnc2ccccn12` [F107], for which the concentration for half-maximal inhibition (IC50) is 119 nM.

In the case of `Cc1ccc(-c2noc(C(C)(C)CO)n2)cc1NC(=O)c1cnc2ccccn12` [F109], the half-inhibitory concentration (IC50) was found to be 682 nM.

Take `Cc1ccc(-c2noc(CCCS(N)(=O)=O)n2)cc1NC(=O)c1cnc2ccccn12` [F110]: the half-inhibitory concentration (IC50) stood at 367 nM.

As to `Cc1ccc(-c2noc(CCCNC(=O)OC(C)(C)C)n2)cc1NC(=O)c1cnc2ccccn12` [F111], the IC50 was found to be 364 nM.

Regarding `Cc1ccc(-c2noc(CCCN)n2)cc1NC(=O)c1cnc2ccccn12` [F112], the IC50 was found to be 174 nM.

Turning to `CC(=O)NCCc1nc(-c2ccc(C)c(NC(=O)c3cnc4ccccn34)c2)no1` [F113], the IC50 worked out at 689 nM.

Take `Cc1ccc(-c2noc(CCNS(C)(=O)=O)n2)cc1NC(=O)c1cnc2ccccn12` [F114]: the IC50 worked out at 409 nM.

Take `Cc1ccc(-c2noc(CCCNS(C)(=O)=O)n2)cc1NC(=O)c1cnc2ccccn12` [F115]: the half-inhibitory concentration (IC50) stood at 772 nM.

For the compound `Cc1ccc(-c2noc(CCS(N)(=O)=O)n2)cc1NC(=O)c1cnc2ccccn12` [F116], the IC50 came to 735 nM.

Regarding `Cc1ccc(-c2noc(CCC(N)=O)n2)cc1NC(=O)c1cnc2ccccn12` [F117, N-(5-(5-(3-amino-3-oxopropyl)-1,2,4-oxadiazol-3-yl)-2-methylphenyl)imidazo[1,2-a]pyridine-3-carboxamide], the IC50 stood at 803 nM.

With `CCNC(=O)CCc1nc(-c2ccc(C)c(NC(=O)c3cnc4ccccn34)c2)no1` [F118], the concentration for half-maximal inhibition (IC50) stood at 527 nM.

For the compound `Cc1ccc(-c2noc(CCC(C)(C)O)n2)cc1NC(=O)c1cnc2ccccn12` [F119], the 50% inhibitory concentration (IC50) was 112 nM.

As to `CCOC(=O)NCCc1nc(-c2ccc(C)c(NC(=O)c3cnc4ccccn34)c2)no1` [F120], the concentration for half-maximal inhibition (IC50) came to 248 nM.

`Cc1ccc(-c2noc(CCC(C)O)n2)cc1NC(=O)c1cnc2ccccn12` (stereo not drawn) [F121]: the IC50 was 104 nM.
